{
  "source": "paper PMC12282101",
  "about": "“Heat shock protein 90 chaperone activity is required for hepatitis A virus replication” (Journal of Virology, 2025)",
  "key": {"HM175/18f virus [1]": {"tested_on": "HM175/18f virus"}, "in vitro [2]": {"test": "in vitro", "conditions": "human"}, "HM175/18f virus [3]": {"tested_on": "HM175/18f virus", "test": "microbe, parasite or virus in culture", "conditions": "Hepatovirus A"}, "Huh-7.5.1 cells [4]": {"tested_on": "Huh-7.5.1 cells", "conditions": "Huh-7.5 or Huh-7.5.1 cells, RT-qPCR experiments"}, "18f-NLuc reporter virus [5]": {"tested_on": "18f-NLuc reporter virus", "type": "cell-based, Hepatitis A virus"}, "HAV IRES": {"tested_on": "HAV IRES", "type": "cell-based, Hepatitis A virus", "conditions": "100 nM"}, "293T cells": {"tested_on": "293T cells", "test": "Cytotoxicity in 293T cells"}, "18f-NLuc reporter virus [6]": {"tested_on": "18f-NLuc reporter virus", "test": "microbe, parasite or virus in culture", "type": "cell-based, Hepatitis A virus", "conditions": "read-out: IC50, HAV replication by NLuc", "procedure": "Cells were lysed in 1× passive lysis buffer (Promega, #E1941) for 15 min at room temperature, then lysates were transferred to opaque white 96-well plates (Corning, #3912). NLuc activity was quantified using the NLuc GLOW Assay kit (Nanolight Technology, #325), and FLuc assays were carried out with the Luciferase Assay System (Promega, E1500). Luminescence was measured using a Biotek Synergy II multi-mode plate reader (BioTek Instruments)."}, "HAV [7]": {"tested_on": "HAV", "test": "microbe, parasite or virus in culture", "type": "cell-based, Hepatitis A virus", "conditions": "read-out: IC50, HAV replication by RT-qPCR"}, "[8]": {"tested_on": "mouse-passaged HM175 strain of HAV", "design": "species or system Ifnar1^-/- mice", "conditions": "in vivo, ip"}, "18f virus": {"tested_on": "18f virus", "type": "cell-based, Hepatitis A virus", "conditions": "cells infected 72 h, then treated 24 h"}, "Huh-7.5.1 cells [9]": {"tested_on": "Huh-7.5.1 cells", "test": "Cell viability in the chemical screen (Cell TiterGlo)", "conditions": "10 µM compound, 72 h"}, "18f-NLuc reporter virus [10]": {"tested_on": "18f-NLuc reporter virus", "test": "microbe, parasite or virus in culture", "conditions": "Hepatovirus A, Huh7.5, 48 h, read-out: IC50, HAV replication by NLuc"}, "18f-NLuc reporter virus [11]": {"tested_on": "18f-NLuc reporter virus", "test": "microbe, parasite or virus in culture", "type": "cell-based, Hepatitis A virus", "conditions": "Hepatovirus A, Huh-7.5.1, 72 h, read-out: Normalized HAV production"}, "18f-NLuc reporter virus [12]": {"tested_on": "18f-NLuc reporter virus", "test": "microbe, parasite or virus in culture", "type": "cell-based, Hepatitis A virus", "conditions": "Hepatovirus A, FRhK-4, 48 h, read-out: IC50, HAV replication by NLuc"}, "ACC1": {"tested_on": "ACC1", "test": "Immunoblot of ACC1 in Huh-7.5 cells", "type": "cell-based, human", "conditions": "200 nM, 24 hours"}, "poliovirus": {"tested_on": "poliovirus", "conditions": "HeLa S3 cells; read-out: IC50, poliovirus replication; cited from earlier work"}, "RV-B14-FLuc": {"tested_on": "RV-B14-FLuc", "type": "cell-based, rhinovirus B14", "conditions": "up to 1 µM, Huh-7.5 cells"}, "in vitro [13]": {"test": "in vitro", "conditions": "human, CC50, Huh-7.5 cells, cellular ATP assay"}, "in vitro [14]": {"test": "in vitro", "conditions": "rhesus monkey, CC50, FRhK4 cells"}, "3C^pro [15]": {"tested_on": "3C^pro", "type": "cell-based, Hepatitis A virus"}, "HAV [16]": {"tested_on": "HAV", "conditions": "FRhK4 fetal rhesus kidney cells; ref 16 Aragonès et al.; read-out: IC50, HAV replication; cited from earlier work"}, "3C^pro [17]": {"tested_on": "3C^pro", "type": "cell-based, Hepatitis A virus", "remark": "listed apart in the source"}, "HAV [18]": {"tested_on": "HAV", "test": "microbe, parasite or virus in culture", "type": "cell-based, Hepatitis A virus", "conditions": "Hepatovirus A; 30 nM, Huh-7.5.1 cells; read-out: Inhibition of infectious virus released"}, "HAV-FLuc": {"tested_on": "HAV-FLuc", "test": "microbe, parasite or virus in culture", "type": "cell-based, Hepatitis A virus"}, "PV1-NLuc [19]": {"tested_on": "PV1-NLuc", "test": "microbe, parasite or virus in culture", "type": "cell-based, type 1 poliovirus", "conditions": "Enterovirus C, FRhK-4, 16 h, read-out: IC50, PV1-NLuc replication"}, "PV1-NLuc [20]": {"tested_on": "PV1-NLuc", "test": "microbe, parasite or virus in culture", "type": "cell-based, type 1 poliovirus", "conditions": "Enterovirus C, Huh7.5, 16 h, read-out: IC50, PV1-NLuc replication"}, "PeV-A1-NLuc": {"tested_on": "PeV-A1-NLuc", "type": "cell-based, human parechovirus A1", "conditions": "A549 cells"}, "HAV [21]": {"tested_on": "HAV", "conditions": "cited from earlier work"}, "[22]": {"conditions": "Huh-7.5.1, read-out: IC50, HAV replication by RT-qPCR"}},
  "note": "Entries after “also recorded” stand apart in the source; their conditions may differ. Like-named read-outs stand apart in the source and are kept apart here.",
  "data": [
    {"smiles": "CC(C)c1cc(-c2n[nH]c(=O)n2-c2ccc3c(ccn3C)c2)c(O)cc1O", "note": "[STA9090]", "values": [
      {"measurement": "Blocking of HAV replication (in words)", "setting": "HM175/18f virus [1]", "result": "highly active"},
      {"measurement": "CC50", "setting": "in vitro [2]", "result": 147, "unit": "nM"},
      {"measurement": "IC50", "setting": "HM175/18f virus [3]; [22]", "result": 12.1, "unit": "nM"}
    ]},
    {"smiles": "C=CCNC1=C2C[C@@H](C)C[C@H](OC)[C@H](O)[C@@H](C)/C=C(\\C)[C@H](OC(N)=O)[C@@H](OC)/C=C\\C=C(/C)C(=O)NC(=CC1=O)C2=O", "note": "[17-AAG]", "values": [
      {"measurement": "Fold by which IC50 is below CC50", "setting": "HM175/18f virus [1]; hepatocyte-derived cells, RT-qPCR", "result": "approximately 30 fold"},
      {"measurement": "IC50", "setting": "HM175/18f virus [1]; read-out: IC50, HAV replication by RT-qPCR", "result": 14.2, "unit": "nM"},
      {"measurement": "CC50", "setting": "Huh-7.5.1 cells [4]", "result": 418, "unit": "nM"},
      {"measurement": "NLuc expression at 48 hours post-infection", "setting": "18f-NLuc reporter virus [5]", "result": "neither case did either HSP90 inhibitor reduce NLuc expression"},
      {"measurement": "GFP synthesis from circRNA HAV IRES reporter", "setting": "HAV IRES", "result": "neither geldanamycin nor 17-AAG inhibited; also recorded: had no effect"},
      {"measurement": "CC50", "setting": "293T cells", "result": "> 1000", "unit": "nM"},
      {"measurement": "IC50", "setting": "18f-NLuc reporter virus [6]; 293T cells", "result": 11.7, "unit": "nM"},
      {"measurement": "IC50", "setting": "HAV [7]; PH5CH8 cells", "result": 3.2, "unit": "nM"},
      {"measurement": "Area occupied by IBA-positive cells in liver section", "setting": "[8]", "result": "significantly reduced"},
      {"measurement": "Increase in serum alanine aminotransferase (ALT) activity versus vehicle", "setting": "[8]", "result": "significantly lower"},
      {"measurement": "Inflammatory cell infiltrates in liver sections (H&E)", "setting": "[8]", "result": "notably fewer and smaller in size"},
      {"measurement": "Number of IBA1-positive cells in liver section", "setting": "[8]", "result": "significantly reduced"},
      {"measurement": "Viral RNA in feces versus vehicle", "setting": "[8]", "result": "significantly reduced"},
      {"measurement": "Viral RNA in liver versus vehicle", "setting": "[8]", "result": "significantly reduced"},
      {"measurement": "Viral RNA in serum versus vehicle", "setting": "[8]", "result": "significantly reduced"}
    ]},
    {"smiles": "CCc1cc(C(N)=O)ccc1-n1nc(C(C)C)c2c(-n3cnc(-c4cnn(C)c4)c3)ccnc21", "note": "[TAS116]", "values": [
      {"measurement": "Blocking of HAV replication (in words)", "setting": "HM175/18f virus [1]", "result": "highly active"},
      {"measurement": "CC50", "setting": "in vitro [2]", "result": 835, "unit": "nM"},
      {"measurement": "IC50", "setting": "HM175/18f virus [3]; [22]", "result": 84.3, "unit": "nM"}
    ]},
    {"smiles": "COC1=C2C[C@@H](C)C[C@H](OC)[C@H](O)[C@@H](C)/C=C(\\C)[C@H](OC(N)=O)[C@@H](OC)/C=C\\C=C(/C)C(=O)NC(=CC1=O)C2=O", "note": "[Geldanamycin]", "values": [
      {"measurement": "VP1 and 3ABC proteins in infected cell lysates", "setting": "18f virus", "result": "concentration-related decreases"},
      {"measurement": "Viability Percent DMSO", "setting": "Huh-7.5.1 cells [9]", "result": 61, "unit": "Percent DMSO"},
      {"measurement": "NLuc expression at 48 hours post-infection", "setting": "18f-NLuc reporter virus [5]", "result": "neither case did either HSP90 inhibitor reduce NLuc expression"},
      {"measurement": "IC50", "setting": "18f-NLuc reporter virus [10]", "result": 8.7, "unit": "nM"},
      {"measurement": "GFP synthesis from circRNA HAV IRES reporter", "setting": "HAV IRES", "result": "had no effect"},
      {"measurement": "GFP synthesis from circRNA HAV IRES reporter", "setting": "HAV IRES; listed as geldanamycin", "result": "neither geldanamycin nor 17-AAG inhibited"},
      {"measurement": "activity at 10 µM", "setting": "18f-NLuc reporter virus [11]", "result": 0.0718, "unit": "%"},
      {"measurement": "IC50", "setting": "18f-NLuc reporter virus [12]", "result": 804, "unit": "nM"},
      {"measurement": "IC50", "setting": "HM175/18f virus [3]; Huh7.5, in Homo sapiens, read-out: 50% inhibitory concentration, HAV replication", "result": "8.7 to 11.8", "unit": "nM"},
      {"measurement": "IC50", "setting": "HM175/18f virus [3]; [22]", "result": 11.8, "unit": "nM"},
      {"measurement": "Abundance of ACC1", "setting": "ACC1", "result": "did not reduce"},
      {"measurement": "IC50", "setting": "poliovirus", "result": 110, "unit": "nM"},
      {"measurement": "Luciferase expression from subgenomic rhinovirus B14 replicon (in words)", "setting": "RV-B14-FLuc", "result": "does not inhibit"},
      {"measurement": "Luciferase expression from subgenomic rhinovirus B14 replicon (in words)", "setting": "RV-B14-FLuc; listed as geldanamycin", "result": "fails to inhibit"},
      {"measurement": "CC50", "setting": "in vitro [13]", "result": 5100, "unit": "nM"},
      {"measurement": "CC50", "setting": "in vitro [14]", "result": "> 10000", "unit": "nM"},
      {"measurement": "CC50", "setting": "in vitro [14]; cellular ATP assay", "result": 59000, "unit": "nM"},
      {"measurement": "Inhibition of 3ABCD processing", "setting": "3C^pro [15]; 0.1 µM", "result": "no inhibition"},
      {"measurement": "Amount of 3ABC product from HA-3ABCD", "setting": "3C^pro [15]; 1 µM", "result": "modestly reduced"},
      {"measurement": "IC50", "setting": "HAV [16]", "result": 5370, "unit": "nM"},
      {"measurement": "Cleavage of GFP-MAVS by 3ABC", "setting": "3C^pro [17]", "result": "no impact"},
      {"measurement": "IC50", "setting": "18f-NLuc reporter virus [6]; Hepatovirus A, HEK-293T", "result": 4.7, "unit": "nM"},
      {"measurement": "inhibition at 0.03 µM", "setting": "HAV [18]", "result": "> 50", "unit": "%"},
      {"measurement": "IC50", "setting": "HAV [7]; Hepatovirus A", "result": 4.3, "unit": "nM"},
      {"measurement": "Replication of subgenomic HAV RNA replicon (in words)", "setting": "HAV-FLuc", "result": "potently inhibited"},
      {"measurement": "IC50", "setting": "HAV-FLuc; Hepatovirus A, Huh7.5, 24 h, read-out: IC50, HAV-FLuc replicon", "result": 29.1, "unit": "nM"},
      {"measurement": "IC50", "setting": "PV1-NLuc [19]", "result": "> 10000", "unit": "nM"},
      {"measurement": "IC50", "setting": "PV1-NLuc [20]", "result": 183, "unit": "nM"},
      {"measurement": "Replication of subgenomic human parechovirus A1 replicon (in words)", "setting": "PeV-A1-NLuc", "result": "minimally inhibits; also recorded: resistant"}
    ]},
    {"smiles": "COc1ccccc1[C@H](Cn1c(=O)n(C(C)(C)C(=O)O)c(=O)c2c(C)c(-c3ncco3)sc21)OC1CCOCC1", "note": "[firsocostat]", "values": [
      {"measurement": "HAV replication in cell culture (in words)", "setting": "HAV [21]", "result": "potently inhibits"}
    ]}
  ]
}
